# Experiments:
# TrkA [1] = biological target: T1, TrkA (Rattus norvegicus, UniProt P35739); assay: Western blot analysis of receptor phosphorilation in PC12 cells; format: cell-based; details: G79 100 ng/ml; 5-15-30-60 min
# T1 construct: PC12 cells expressing both TrkA and p75 receptors were cultivated in normal growth medium; endogenous in cells; host or cells: PC12
# Experimental: (§1) Neurotrophin receptors TrkA and TrkB activation (phosphorilation) was evaluated by Western-blot as follows: PC12 cell growing on 24-well plates were treated with low serum medium (0.5% FBS) to reduce the basal level of phosphorilation. After 24 h, the PC12 cells were treated with G79 (100 ng/ml), then recovered and lysated in 300 μl of ice-cold lysis buffer (Sigma Aldrich) at 5-15-30-60 min. After sonication, cell debris were removed by centrifugation (14000 rpm for 10 min) and equal amount of supernatant (30-35 μg/well) were loaded and separated by 10% polyacrilamide gel electrophoresis (PAGE) and then electrobloted onto PVDF membranes. Membranes were blocked by 5% nonfat milk and then sequentially incubated with the primary antibodies [phospho-TrkA, Tyr490 (Cell Signaling) or phospho-TrkB, Tyr515 (NovusBiological)] 1:1000 over-night and the secondary antibodies 1:2000, for 1 h at room temperature. Blots were processed for visualization by chemiluminescence system (Amersham) and exposed to Kodak film to visualize the fluorographic image.
# TrkB = biological target: T2, TrkB (Rattus norvegicus, UniProt Q63604); assay: as above; format: cell-based; details: G79 100 ng/ml; 5-15-30-60 min
# T2 construct: endogenous in cells; host or cells: PC12
# Experimental: as §1
# ATF-2 = assay: Luminex signalling assay in SH-SY5Y; format: cell-based, human; details: G79 100 ng/ml and 20 μg/ml, BDNF 20 ng/ml; 30 min, 1 h, 2 h, 6 h
# Source text: (§2) The human neuroblastoma cell line SH-SY5Y was used to perform Luminex signalling assays using the 10-Plex MAPK/SAPK Signaling Kit-Phosphoprotein (Millipore). This cell line expresses the TrkB receptor and the MAPK/SAPK signalling pathway is typically activated by the tyrosinkinase receptors. The phosphoprotein antibodies included into the kit are the following: ERK/MAP kinase (Thr185/Tyr187); STAT-1 (Tyr701); JNK (Thr183/Tyr185); MEK-1 (Ser212); ATF-2 (Thr69/71); p53 (Ser15); HSP27 (Ser78); c-Jun (Ser73); p38 (Thr180/Tyr182), p70 S6 kinase (Thr412); IkBα (Ser32) (purchased from Millipore).
# (§3) The cells were propagated and then seeded into 24-well plates (30.000 cell/well). After 24 hours, the cells were treated with two different concentrations of NGF-receptor agonist G79: 100 ng/ml and 20 μg/ml. After adding G79 into the medium, the cells were collected in the lysis buffer of the kit at the following time points: 30 min, 1 h, 2 h, and 6 h. The assay was performed in this way to assess both time and dose effects comparing the treated samples with the untreated cells used as negative controls (unstimulated SH-SY5Y cells). BDNF was used as positive control at the concentration 20 ng/ml, which is the best working concentration known in literature. In the Luminex plate, each sample was added into a well in duplicate. After adding all the samples, the specific positive and negative controls of phosphorilation, included in the Luminex kit, were added. The assay buffer was also added in duplicate, as a background controls.
# (§4) In the circles are the activated factors, while in the grey circles are the tested factors. Its effects of the SY-SY5Y cell line in the phosphorilation of several pathways were assessed using xMAP assay from Luminex. […] The levels of activation are expressed as Median Fluorescence Intensity (MFI).
# HSP-27 = assay: Luminex signalling assay in SH-SY5Y; format: cell-based, human; details: G79 100 ng/ml and 20 μg/ml, BDNF 20 ng/ml; 30 min, 1 h, 2 h, 6 h
# Source text: as §2, §3, §4
# JNK = assay: Luminex signalling assay in SH-SY5Y; format: cell-based, human; details: G79 100 ng/ml and 20 μg/ml, BDNF 20 ng/ml; 30 min, 1 h, 2 h, 6 h
# Source text: as §2, §3, §4
# STAT-1 = assay: Luminex signalling assay in SH-SY5Y; format: cell-based, human; details: G79 100 ng/ml and 20 μg/ml, BDNF 20 ng/ml; 30 min, 1 h, 2 h, 6 h
# Source text: as §2, §3, §4
# TrkA [2] = biological target: T1, TrkA; assay: Cytometry binding assay in PC12 with antibody anti-p75; details: pre-incubation with the antibody anti-p75; growing NGF
# Experimental: In order to assess the binding of G79 to the TrkA (PC12 cells) and TrkB receptors (SH-SY5Y), we performed competitive binding assays by flow cytometry. In order to assess the binding competition between p75 and TrkA, PC12 cells expressing both TrkA and p75 receptors were cultivated in normal growth medium. After detaching cells by trypsin solution, 200,000 cells/well were added to tubes for the following incubations. One tube contains control untreated cells. In the other tubes, cells were pre-incubated for 45 minutes with different concentrations of NGF (0-10-20-50-100 ng/ml), that can directly bind both TrkA and p75 receptors, blocking the possible binding of G79 if it competes for the same receptors. Then, without washing the cells, G79 conjugated with FITC fluorescence (100 ng/ml) was added and so incubated the cells for 1 hour. Samples were read in a cytometer (FCAScan).
# To detect the binding separately on both receptors, a prior incubation of cells (before NGF incubation) with blocking antibodies was made. The cells were preincubated for 1 hour with blocking antibody anti-p75 (1:100; Chemicon Int.), to detect the binding on TrkA, or blocking antibody anti-TrkA (1:200; AbCam) to detect the binding on p75. […] All the results are expressed as mean channel fluorescence (MCF), which is a measure of the cell surface fluorescence produced by G79-FITC binding.
# [3] = PAMPA model of passive BBB permeability; format: in vitro ADME; details: passive transport
# Experimental: PAMPA is used as an in vitro model of passive BBB permeability. An artificial membrane immobilized on a filter is placed between a donor and acceptor compartment. At the start of the test, a drug is introduced in the donor compartment. Following the permeation period, the concentration of the drug in the donor and acceptor compartments are measured using UV spectroscopy. Therefore the permeability of any compound with a UV chromophore can be determined by this method.
# The tested compound stock solutions were diluted 200-fold in universal buffer at pH 7.4 and added to the donor wells. The filter membrane was coated with PBL in dodecane and the acceptor well was filled with pH 7.4 buffer. The acceptor filter plate was carefully put on the donor plate to form a ‘sandwich’ (consisting of the aqueous donor with test the compound on the bottom, an artificial lipid membrane in the middle, and an aqueous acceptor on the top). The test compound diffused from the donor well through the lipid membrane and into the acceptor well. The ‘sandwich’ was left undisturbed for 18 hrs while the permeation occurred. The concentration of the test compound in the acceptor, the donor, and the reference wells was determined using the UV plate reader. Effective permeability (Pe) of each compound was calculated by using the pION PSR4p software. Samples were analyzed in triplicate and the average of the three runs was reported. Quality control standards were run with each sample set to monitor the consistency of the analysis set.
# T1 sequence (P35739 33-799): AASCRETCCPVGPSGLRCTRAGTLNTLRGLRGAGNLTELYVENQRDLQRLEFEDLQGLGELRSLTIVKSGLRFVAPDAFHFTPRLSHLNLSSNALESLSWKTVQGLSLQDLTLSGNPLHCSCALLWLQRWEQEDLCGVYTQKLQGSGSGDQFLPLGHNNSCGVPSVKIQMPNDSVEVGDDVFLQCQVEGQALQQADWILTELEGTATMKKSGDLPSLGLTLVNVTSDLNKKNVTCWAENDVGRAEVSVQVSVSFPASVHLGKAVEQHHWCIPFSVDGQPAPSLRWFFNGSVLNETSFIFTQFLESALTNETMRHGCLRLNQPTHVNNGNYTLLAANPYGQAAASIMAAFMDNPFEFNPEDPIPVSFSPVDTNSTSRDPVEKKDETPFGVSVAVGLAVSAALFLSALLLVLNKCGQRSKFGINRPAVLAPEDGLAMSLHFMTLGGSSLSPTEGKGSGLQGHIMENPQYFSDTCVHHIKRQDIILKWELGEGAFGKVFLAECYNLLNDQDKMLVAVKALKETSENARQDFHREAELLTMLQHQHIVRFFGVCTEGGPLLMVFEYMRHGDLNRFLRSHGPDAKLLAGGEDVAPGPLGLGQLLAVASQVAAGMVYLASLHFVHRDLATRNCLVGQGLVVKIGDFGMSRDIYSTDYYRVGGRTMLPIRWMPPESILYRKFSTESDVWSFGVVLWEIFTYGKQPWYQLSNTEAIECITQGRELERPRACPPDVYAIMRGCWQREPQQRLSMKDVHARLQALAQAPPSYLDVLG
# T2 sequence (Q63604 32-821): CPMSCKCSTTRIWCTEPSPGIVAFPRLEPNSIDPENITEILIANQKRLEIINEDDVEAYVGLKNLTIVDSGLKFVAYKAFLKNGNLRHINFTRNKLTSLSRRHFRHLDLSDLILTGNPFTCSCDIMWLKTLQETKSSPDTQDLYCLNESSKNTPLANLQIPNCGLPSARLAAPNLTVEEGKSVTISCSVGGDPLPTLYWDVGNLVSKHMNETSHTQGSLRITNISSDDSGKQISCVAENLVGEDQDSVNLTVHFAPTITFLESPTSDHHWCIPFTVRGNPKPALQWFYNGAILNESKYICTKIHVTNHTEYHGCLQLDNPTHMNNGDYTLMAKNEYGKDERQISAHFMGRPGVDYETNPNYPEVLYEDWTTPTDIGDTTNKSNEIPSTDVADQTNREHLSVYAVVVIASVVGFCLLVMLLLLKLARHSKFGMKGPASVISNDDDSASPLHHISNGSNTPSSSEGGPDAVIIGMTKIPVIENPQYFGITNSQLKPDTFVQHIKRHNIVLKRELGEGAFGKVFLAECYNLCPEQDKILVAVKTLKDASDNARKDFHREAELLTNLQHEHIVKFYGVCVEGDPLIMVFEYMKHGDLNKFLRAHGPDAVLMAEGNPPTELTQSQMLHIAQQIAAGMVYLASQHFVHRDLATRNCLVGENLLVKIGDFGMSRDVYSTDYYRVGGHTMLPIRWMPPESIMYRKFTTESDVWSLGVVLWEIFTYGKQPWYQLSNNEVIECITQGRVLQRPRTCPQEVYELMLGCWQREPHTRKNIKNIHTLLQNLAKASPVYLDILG
structure (smiles),measurement,setting,value
"CC(C)CN(CC(=O)N(CCCN1CCCC1=O)CC(N)=O)C(=O)CNCCc1ccccc1F [Compound G79, [N-(2-(2′-Fluorophenyl)ethyl)glycyl]-[N-(2-methylpropyl)glycyl]-N-[3-(2′-oxopyrrolidinyl)propyl]glycinamide]","TrkA phosphorilation (phospho-TrkA, Tyr490)",TrkA [1],phosphorilated already after 5 min
same,"TrkB phosphorilation (phospho-TrkB, Tyr515)",TrkB,phosphorilated already after 5 min
same,ATF-2 phospho-activation (MFI) compared to unstimulated control,ATF-2,significantly activated at 6 h after G79 treatment (20 μg/ml)
same,HSP-27 phospho-activation (MFI) compared to unstimulated control,HSP-27,significantly activated at 1 h after G79 treatment (both at 20 μg/ml and 100 ng/ml)
same,JNK phospho-activation (MFI) compared to unstimulated control,JNK,significantly activated at 6 h after G79 treatment (both at 20 μg/ml and 100 ng/ml)
same,STAT-1 phospho-activation (MFI) compared to unstimulated control,STAT-1,significantly activated at 6 h after G79 treatment (20 μg/ml)
same,binding on TrkA (MCF of G79-FITC),TrkA [2],apparently does not compete with NGF for the binding on TrkA
same,crossing the BBB in the PAMPA model (in words),[3],unable to cross the BBB in the PAMPA model
